Laboratory results published in ChEMBL document CHEMBL1154450, “Synthesis and biological evaluation of diversely substituted indolin-2-ones” (Eur J Med Chem, 2008).
The source made the active and inactive calls. No cut-off for these calls is given here.

Assays:
[1] = target: Proto-oncogene tyrosine-protein kinase receptor Ret (Homo sapiens, UniProt P07949); test: Inhibition of Ret
[2] = target: Insulin-like growth factor 1 receptor (Homo sapiens, UniProt P08069); test: Inhibition of IGF1R
[3] = target: Vascular endothelial growth factor receptor 2 (Homo sapiens, UniProt P35968); test: Inhibition of KDR
[4] = system: Escherichia coli; test: Antibacterial activity against Escherichia coli ATCC 11303 at 300 ug/disk after 24 hrs by paper disk diffusion test; format: functional; conditions: for zone of inhibition at 300 µg/disc: ATCC 11303, 24 h, read-out: IZ
[5] = Inhibition of PKA
[6] = system: Candida albicans; test: Antimicrobial activity against Candida albicans IP444 at 300 ug/disk after 24 hrs by paper disk diffusion test; format: functional; conditions: for zone of inhibition at 300 µg/disc: read-out: IZ
[7] = target: Hepatocyte growth factor receptor (Homo sapiens, UniProt P08581); test: Inhibition of cMet
[8] = target: Tyrosine-protein kinase ABL1 (Homo sapiens, UniProt P00519); test: Inhibition of c-Abl
[9] = target: Cyclin-dependent kinase 2 (Homo sapiens, UniProt P24941); test: Inhibition of CDK2/Cyclin A
[10] = target: Proto-oncogene tyrosine-protein kinase Src (Homo sapiens, UniProt P12931); test: Inhibition of Src
[11] = system: Bacillus cereus; test: Antibacterial activity against Bacillus cereus ATCC 14579 at 300 ug/disk after 24 hrs by paper disk diffusion test; format: functional; conditions: ATCC 14579, 24 h, read-out: IZ
[12] = system: Streptomyces chartreusis; test: Antibacterial activity against Streptomyces chartreusis NRRL 11407 at 300 ug/disk after 24 hrs by paper disk diffusion test; format: functional; conditions: NRRL 11407, 24 h, read-out: IZ

Proto-oncogene tyrosine-protein kinase receptor Ret, sequence (P07949 whole entry): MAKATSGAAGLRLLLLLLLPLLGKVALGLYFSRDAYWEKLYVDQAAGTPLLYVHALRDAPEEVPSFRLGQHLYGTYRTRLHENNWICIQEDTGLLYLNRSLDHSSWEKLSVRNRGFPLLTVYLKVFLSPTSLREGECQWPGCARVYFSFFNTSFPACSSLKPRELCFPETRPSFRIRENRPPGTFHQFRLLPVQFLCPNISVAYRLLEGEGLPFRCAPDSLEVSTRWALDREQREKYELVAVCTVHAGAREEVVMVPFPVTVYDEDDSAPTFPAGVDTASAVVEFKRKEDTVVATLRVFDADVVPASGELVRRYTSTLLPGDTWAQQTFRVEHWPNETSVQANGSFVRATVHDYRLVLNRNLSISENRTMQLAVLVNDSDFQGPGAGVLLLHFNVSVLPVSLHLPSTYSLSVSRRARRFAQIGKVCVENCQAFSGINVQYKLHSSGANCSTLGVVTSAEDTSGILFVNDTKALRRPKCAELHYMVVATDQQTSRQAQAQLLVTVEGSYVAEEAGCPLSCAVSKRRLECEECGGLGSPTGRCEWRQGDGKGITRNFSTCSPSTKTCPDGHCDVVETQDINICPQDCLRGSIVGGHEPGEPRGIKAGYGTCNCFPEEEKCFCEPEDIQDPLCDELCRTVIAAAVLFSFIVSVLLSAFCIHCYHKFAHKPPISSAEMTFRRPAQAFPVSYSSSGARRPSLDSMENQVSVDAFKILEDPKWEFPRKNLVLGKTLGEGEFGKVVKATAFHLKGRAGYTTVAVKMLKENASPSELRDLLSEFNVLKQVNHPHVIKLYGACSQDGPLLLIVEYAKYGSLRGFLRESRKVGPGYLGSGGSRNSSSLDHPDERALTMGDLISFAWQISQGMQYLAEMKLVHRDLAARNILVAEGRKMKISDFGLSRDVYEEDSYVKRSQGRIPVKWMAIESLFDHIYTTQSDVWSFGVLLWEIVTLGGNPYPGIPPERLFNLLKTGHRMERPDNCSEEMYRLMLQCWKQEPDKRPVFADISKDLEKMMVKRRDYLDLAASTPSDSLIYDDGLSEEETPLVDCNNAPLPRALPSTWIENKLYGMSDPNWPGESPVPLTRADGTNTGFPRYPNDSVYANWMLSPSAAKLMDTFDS
Vascular endothelial growth factor receptor 2, sequence (P35968 whole entry, the tested form may be a part): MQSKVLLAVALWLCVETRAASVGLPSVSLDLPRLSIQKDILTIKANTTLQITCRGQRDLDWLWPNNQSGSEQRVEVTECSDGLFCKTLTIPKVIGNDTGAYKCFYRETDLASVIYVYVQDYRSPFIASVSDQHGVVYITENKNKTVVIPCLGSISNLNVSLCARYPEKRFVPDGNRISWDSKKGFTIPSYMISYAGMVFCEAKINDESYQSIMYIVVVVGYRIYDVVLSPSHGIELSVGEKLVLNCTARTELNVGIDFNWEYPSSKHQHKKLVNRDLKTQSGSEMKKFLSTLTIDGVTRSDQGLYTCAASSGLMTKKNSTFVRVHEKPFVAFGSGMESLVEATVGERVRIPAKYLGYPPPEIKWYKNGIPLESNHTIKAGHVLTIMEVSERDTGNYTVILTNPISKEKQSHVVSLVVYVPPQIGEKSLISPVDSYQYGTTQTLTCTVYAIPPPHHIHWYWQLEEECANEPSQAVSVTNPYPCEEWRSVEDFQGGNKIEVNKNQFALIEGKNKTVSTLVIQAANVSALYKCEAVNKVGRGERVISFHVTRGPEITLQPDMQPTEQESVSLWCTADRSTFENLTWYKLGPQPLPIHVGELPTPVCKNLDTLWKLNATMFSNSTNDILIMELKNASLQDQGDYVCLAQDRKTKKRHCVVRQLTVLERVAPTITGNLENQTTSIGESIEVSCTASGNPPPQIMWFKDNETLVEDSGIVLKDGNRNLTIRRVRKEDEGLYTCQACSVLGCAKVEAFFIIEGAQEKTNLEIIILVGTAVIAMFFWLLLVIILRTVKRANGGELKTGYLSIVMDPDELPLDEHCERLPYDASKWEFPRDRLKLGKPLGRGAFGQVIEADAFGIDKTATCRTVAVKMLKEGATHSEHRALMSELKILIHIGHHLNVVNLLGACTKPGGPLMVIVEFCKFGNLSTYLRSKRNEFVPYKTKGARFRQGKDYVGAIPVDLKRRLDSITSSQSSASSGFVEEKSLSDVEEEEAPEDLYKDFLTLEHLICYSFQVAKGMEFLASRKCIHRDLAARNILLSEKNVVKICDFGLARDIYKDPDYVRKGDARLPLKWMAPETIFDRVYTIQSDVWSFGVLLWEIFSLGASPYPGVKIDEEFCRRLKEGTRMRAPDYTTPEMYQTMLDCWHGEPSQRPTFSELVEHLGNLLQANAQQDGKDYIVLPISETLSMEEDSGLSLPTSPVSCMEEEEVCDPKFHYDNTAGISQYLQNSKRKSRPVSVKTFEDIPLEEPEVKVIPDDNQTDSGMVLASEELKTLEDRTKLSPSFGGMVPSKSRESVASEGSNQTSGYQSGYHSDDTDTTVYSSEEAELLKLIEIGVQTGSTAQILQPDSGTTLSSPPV
Proto-oncogene tyrosine-protein kinase Src, sequence (P12931 2-536 limits assumed): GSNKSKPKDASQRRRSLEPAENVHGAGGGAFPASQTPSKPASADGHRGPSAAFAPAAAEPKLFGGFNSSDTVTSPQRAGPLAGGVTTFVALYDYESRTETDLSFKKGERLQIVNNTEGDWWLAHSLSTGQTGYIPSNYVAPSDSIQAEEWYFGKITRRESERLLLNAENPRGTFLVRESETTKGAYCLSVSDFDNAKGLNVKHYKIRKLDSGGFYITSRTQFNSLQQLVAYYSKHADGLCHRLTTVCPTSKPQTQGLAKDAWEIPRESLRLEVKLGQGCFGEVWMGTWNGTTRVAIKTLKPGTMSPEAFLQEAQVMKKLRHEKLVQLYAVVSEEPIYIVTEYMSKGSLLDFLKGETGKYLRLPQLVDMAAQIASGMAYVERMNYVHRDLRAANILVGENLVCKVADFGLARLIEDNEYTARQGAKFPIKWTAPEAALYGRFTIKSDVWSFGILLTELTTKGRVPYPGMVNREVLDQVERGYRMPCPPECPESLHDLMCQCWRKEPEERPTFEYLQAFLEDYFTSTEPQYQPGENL
Tyrosine-protein kinase ABL1, sequence (P00519 whole entry): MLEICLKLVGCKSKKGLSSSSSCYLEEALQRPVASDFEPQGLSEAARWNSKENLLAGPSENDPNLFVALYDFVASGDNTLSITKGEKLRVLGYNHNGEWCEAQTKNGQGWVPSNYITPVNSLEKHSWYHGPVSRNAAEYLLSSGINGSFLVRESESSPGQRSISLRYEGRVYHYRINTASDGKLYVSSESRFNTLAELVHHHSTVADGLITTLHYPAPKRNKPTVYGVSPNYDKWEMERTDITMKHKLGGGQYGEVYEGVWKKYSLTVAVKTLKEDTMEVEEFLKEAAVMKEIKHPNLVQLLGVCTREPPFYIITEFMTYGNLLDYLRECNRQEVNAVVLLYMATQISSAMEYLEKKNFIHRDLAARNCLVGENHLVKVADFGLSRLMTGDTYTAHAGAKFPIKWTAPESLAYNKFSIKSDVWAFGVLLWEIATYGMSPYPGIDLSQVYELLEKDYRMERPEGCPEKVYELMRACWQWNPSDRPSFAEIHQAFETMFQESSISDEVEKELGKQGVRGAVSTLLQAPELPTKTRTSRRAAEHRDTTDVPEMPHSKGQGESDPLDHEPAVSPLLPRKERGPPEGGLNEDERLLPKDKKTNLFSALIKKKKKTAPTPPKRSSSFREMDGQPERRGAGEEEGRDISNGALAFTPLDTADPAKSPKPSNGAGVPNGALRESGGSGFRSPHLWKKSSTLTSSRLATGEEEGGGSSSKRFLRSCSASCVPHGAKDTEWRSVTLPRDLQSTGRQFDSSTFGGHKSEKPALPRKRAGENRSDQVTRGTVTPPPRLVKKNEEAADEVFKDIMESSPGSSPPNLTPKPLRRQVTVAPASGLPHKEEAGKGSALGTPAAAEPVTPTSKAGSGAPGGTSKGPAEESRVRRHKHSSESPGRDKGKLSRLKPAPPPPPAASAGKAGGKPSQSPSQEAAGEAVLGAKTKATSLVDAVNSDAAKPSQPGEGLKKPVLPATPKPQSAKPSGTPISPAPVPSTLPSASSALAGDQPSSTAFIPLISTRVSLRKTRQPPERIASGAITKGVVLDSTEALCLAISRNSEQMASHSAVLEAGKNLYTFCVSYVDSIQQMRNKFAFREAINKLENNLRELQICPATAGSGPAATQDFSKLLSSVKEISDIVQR

Row | SMILES | IC50 [1] | IC50 [2] | IC50 [3] | IC50 [5] | IC50 [7] | IC50 [8] | IC50 [9] | IC50 [10] | Activity [4] | Activity [6] | zone of inhibition at 300 µg/disc [11] | zone of inhibition at 300 µg/disc [12] | zone of inhibition at 300 µg/disc [6] | zone of inhibition at 300 µg/disc [4]
1 | N[C@@H](CCCN/C=C1\C(=O)Nc2ccc(Br)cc21)C(=O)O | > 10 µM | > 10 µM | > 10 µM | > 10 µM | > 10 µM | > 10 µM | 6.6 µM | > 10 µM | inactive | inactive | 7 mm | 8 mm | – | –
2 | C[C@@H]1[C@H](O)[C@@H](C)/C=C/C=C/C=C/C=C/C=C/C=C/C=C/[C@H](O[C@@H]2O[C@H](C)[C@@H](O)[C@H](N)[C@@H]2O)C[C@@H]2O[C@](O)(C[C@@H](O)C[C@@H](O)[C@H](O)CC[C@@H](O)C[C@@H](O)CC(=O)O[C@H]1C)C[C@H](O)[C@H]2C(=O)O [AMPHOTERICIN B] | – | – | – | – | – | – | – | – | – | – | – | – | 13 mm | –
3 | CC1(C)S[C@@H]2[C@H](NC(=O)[C@H](N)c3ccccc3)C(=O)N2[C@H]1C(=O)O [AMPICILLIN] | – | – | – | – | – | – | – | – | – | – | 13 mm | 25 mm | – | 31 mm
4 | N[C@@H](CCCCN/C=C1\C(=O)Nc2ccc(Br)cc21)C(=O)O | > 10 µM | > 10 µM | > 10 µM | > 10 µM | > 10 µM | > 10 µM | – | > 10 µM | inactive | – | 6 mm | 7 mm | 6 mm | –

Now from value to compound, other results behind:

Row | IC50 [1] | IC50 [2] | IC50 [3] | IC50 [5] | IC50 [7] | IC50 [8] | IC50 [9] | IC50 [10] | SMILES | Activity [4] | Activity [6] | zone of inhibition at 300 µg/disc [11] | zone of inhibition at 300 µg/disc [12] | zone of inhibition at 300 µg/disc [6] | zone of inhibition at 300 µg/disc [4]
5 | > 10 µM | > 10 µM | > 10 µM | > 10 µM | > 10 µM | > 10 µM | – | > 10 µM | N[C@@H](CCCCN/C=C1\C(=O)Nc2ccccc21)C(=O)O | inactive | – | 6 mm | 6 mm | 6 mm | –
6 | > 10 µM | > 10 µM | > 10 µM | > 10 µM | > 10 µM | > 10 µM | – | > 10 µM | N[C@@H](CCCN/C=C1\C(=O)Nc2ccccc21)C(=O)O | – | – | 7 mm | 10 mm | 6 mm | 6 mm
